Measurements published in BigSolDB 2.1.

NC12CC3CC(C1)CC(O)(C3)C2
solubility (mole fraction)
Conditions | in THF | in ethanol | in methanol | in n-butanol | in n-propanol | in water
278.15 K | 0.0201 | 0.0608 | 0.0136 | 0.0626 | 0.133 | 0.0125
283.15 K | 0.0213 | 0.0768 | 0.0176 | 0.0657 | 0.145 | 0.0146
288.15 K | 0.0229 | 0.0974 | 0.0209 | 0.0679 | 0.157 | 0.0173
293.15 K | 0.0247 | 0.123 | 0.0253 | 0.0704 | 0.171 | 0.0207
298.15 K | 0.0269 | 0.151 | 0.0297 | 0.0736 | 0.185 | 0.0233
303.15 K | 0.0294 | 0.183 | 0.0352 | 0.0761 | 0.2 | 0.0266
308.15 K | 0.0323 | 0.219 | 0.0422 | 0.0799 | 0.216 | 0.0306
313.15 K | 0.0356 | 0.256 | 0.0509 | 0.0827 | 0.234 | 0.0354
318.15 K | 0.0394 | 0.296 | 0.0618 | 0.0868 | 0.252 | 0.0413
323.15 K | 0.0439 | 0.337 | 0.0754 | 0.0904 | 0.272 | 0.0486
328.15 K | 0.049 | 0.389 | 0.0926 | 0.0943 | 0.293 | 0.0575
